In assay [1] the test system is human term placenta. Briefly: Effect of dexamethasone and GnRH on prostanoid release from perifused human term placental explants. In kind it is cell-based. How it is done:
Medium 199 (x2) with Earles' Modified Salts, bicarbonate and L-glutamine without phenol red was purchased from Gibco (Chagrin Falls, Ohio). Penicillin, streptomycin, bovine serum albumin and Indomethacin were obtained from Sigma Chemicals (St. Louis, Mo.). Placental perifusion was performed essentially as described in Example 3.
Samples were stored at −20° C. until assayed for PGE, PGF, PGFM, Tx B2 or 6-keto-PGF1α. Recovery and stability of these prostanoids in this perifusion system and during storage were assessed by spiking the medium with prostanoids and perifusing it through empty chambers and collecting samples as described above. In addition, samples were frozen and thawed repeatedly and re-assayed. Prostanoid recovery and stability were nearly 100%. Thus, no data correction for procedural losses was done. Radioimmunoassays were performed as described in Example 1.
The perifusion system described at Examples 2 and 3 was used in the present study. […] It took one hour for the input medium to pass through the perifusion tubing and chamber and to be collected in the sample tube. Four replicated chambers were perifused with each of the three experimental media, while, in another four replicated chambers, the perifusion was continued with the control Medium 199.
Hormonal values for a given chamber were normalized to the fifth-hour prostanoid release for that chamber, expressed as a percent release over the fifth-hour release. […] Thus, the release of each chamber was related to functional competence at the time of treatment rather than to its mass.
The mean release for replicate chambers from a given placenta for each particular hormone in the presence of GnRH, dexamethasone, or GnRH and dexamethasone at each point was calculated. Similar calculations were done for the control chambers. The mean data for each treatment for the three different placentas were subjected to statistical analyses. Thus, the response for each placenta was weighed equally. Two-way analysis of variance was used to determine if there was significant main effect or interaction.
In addition, the cumulative release for each hormone from each placenta for each treatment was calculated. One-way analysis of variance was used to test for statistically significant effects of treatment. The points of significant variation were determined using Student-Newman-Keuls' test.

The conditions of assay [2]: on the order of at least; cited from earlier work.
Assay [3] relates to human term placenta. Briefly: Effect of enzyme inhibitors on prostanoid release from perifused human term placental explants (RIA). It is filed as cell-based. The note with it: indomethacin 50 μg/ml. How it is done:
Radioimmunoassays were performed in a fashion similar to what has been previously described (Siler-Khodr et al., 1986, Biol. Reprod., 35:312) which is specifically incorporated herein for this purpose, with specific exception as noted below. A perifusion model (described in Examples 2 and 3) was employed to determine placental cell response. Media collected from the perifusion samples prepared from placental tissues were assayed. […] All the samples from a given perifusion (placenta) were determined in the same assay. At the beginning of the fifth hour of the perifusion, Medium 199 in the experimental chambers was changed to Medium 199 containing quinacrine (10 μM), EDTA (1 mM), NDGA (10 μM) or indomethacin (50 μg/ml). Four replicated chambers were perifused with control medium and each of the experimental media. This experimental design was repeated in three different perifusions using placental tissues from three different patients according to the procedure described in Example 3. […] Term placentas were obtained and placed on ice immediately after vaginal delivery from patients having spontaneous labor and delivery without any known obstetrical or medical complications. Tissues were obtained in accordance with a protocol approved by the Institutional Review Board. Within 30 minutes, the placental tissues were dissected of decidua, chorionic plates and large fetal vessels on ice. The placental tissues were cut into small fragments (approximately 25 pieces having a total weight of approximately 1 g), rinsed free of blood by repeated washing with ice cold normal saline until clear in color, and the tissue fragments placed in a 3-ml tissue chamber, placed in a 37° C. water bath. […] This medium is hereafter referred to as Medium 199. […] Perifusion was performed for two hours prior to initiation of sample collection. In this fashion, all tissues were thoroughly washed and equilibrated. Samples were collected hourly, beginning at the start of the third hour, into 12×75 mm glass tubes containing 0.1 ml indomethacin and 1100 μg/ml dimethyl sulfoxide [DMSO]. It took approximately one hour for the input medium to pass through the perifusion tubing and chamber and to be collected in the sample tube, thus the dead volume of the system was approximately 1 ml. Collection of the effluent of the 20 chambers was done simultaneously, using an ISCO fraction collector Retriever III adapted with a 20-tube rack and manifold. The prostanoid release for a given chamber was expressed as the increase over the fourth-hour prostanoid release for that chamber. Because there may be differences in the amounts of blood vessels and connective tissue among placental explants, the release expressed per unit weight results in high variance between chambers. […] Thus, the release of each chamber was related to its functional competence at the time of treatment rather than its mass. The mean release for replicate chambers from a given placenta for each particular prostanoid in the presence of arachidonic acid or each of the various enzyme inhibitors was calculated and then the mean data for each of the three different placentas was averaged at each time point. Thus, each placenta was weighted equally in the statistical analyses. Two-way analysis of variance of the average response for each prostanoid for each dose of arachidonic acid or each enzyme inhibitor studied, at each time point, was performed. The normalized data were tested for homogeneity using Cohrna's Q test, and no significant deviation was found. Thus, for each prostanoid and each treatment, where there was a significant main effect or interaction, Dunnett's comparison test was applied to determine the point(s) of significant difference as compared to the control. P<0.05 was considered to be statistically significant.

The subject of assay [4] is human term placenta. Briefly: IGF-I effect on prostanoid and hCG release from perifused human term placental explants. It is filed as cell-based. How it is done:
Term placentas were obtained and processed as described herein. Seven replicate chambers were prepared and each perifused with Medium 199 containing 0.05% BSA, penicillin (100 U/ml), streptomycin (100 μg/ml), estradiol (200 ng/ml), progesterone (2000 ng/ml), dexamethasone (10^−8 M), and insulin (100 μU/ml), at a rate of 6 ml/hour for 10.5 hours. Steroids were first dissolved in ethanol at 10^−4M final concentration and taken to final dilution with BSA-containing medium. This medium is hereafter referred to as Medium 199. These concentrations of steroid were chosen because they are known by those in the obstetrical arts to simulate the intrauterine milieu in vivo in humans. The influx medium was aerated with 95% air and 5% CO2 throughout the perifusion. Perifusion at a rate of 6 ml/hr was performed for […] prior to initiation of sample collection. In this fashion, all tissues were thoroughly washed and equilibrated. Samples were collected every half-hour, beginning at the start of the fourth hour, into 12×75 mm glass tubes containing 0.1 ml indomethacin (1100 μg/ml dimethyl sulfoxide [DMSO]). Collection of the effluent of the seven chambers was done simultaneously, using an ISCO fraction collector Retriever III adapted with a rack having seven tubes and a manifold.
To study the effect of IGF-I on basal prostanoid release, ten minutes prior to the beginning of the fifth hour of the perifusion, Medium 199 in the experimental chambers was changed to Medium 199 containing IGF-I (10^−8 M). This dose of IGF-I was chosen from calculations of the inventor using the Km of the placental receptor for IGF-I. It took ten minutes for the input medium to pass through the perifusion tubing and chamber and to be collected in the sample tube. Three replicated chambers were perifused with experimental medium, whereas, in another four replicated chambers, the perifusion was continued with the control, Medium 199. This experimental design was repeated using placental tissues from three different patients each having a normal pregnancy.
Prostanoid recovery and stability was determined as described in Example 1. Prostanoid radioimmunoassay was also conducted as described in Example 1.
Hormonal values for a given chamber were normalized to the fifth-hour prostanoid or hCG release for that chamber, expressed as a percent release over the fifth-hour release. Because there may be differences in the amount of blood vessels and connective tissue among placental explants, the release expressed per unit weight results in high variance between chambers. […] Thus, the release of each chamber was related to its functional competence at the time of treatment rather than to its mass. The mean release for replicate chambers from a given placenta for each particular hormone in the presence of IGF-I at each time point was calculated and the mean data for each of the three different placentas were averaged at each time point. Thus, each placenta was weighed equally in the statistical analyses. Similar calculations were done for the controls as for the experimental chambers. For each hormone studied, these average normalized data were tested for homogeneity, using Bartlett's test, and if significant deviation was found, the data were log-transformed prior to statistical analysis. Two-way analysis of variance was used to determine if there was significant main effect or interaction.
In addition, the cumulative release for each hormone from each placenta for each treatment was calculated. One-way analysis of variance was used to test for statistical effects of treatment. The points of significant variation were determined using the Student-Newman-Keuls test.

Assay [5] has as its system human term placenta. Briefly: Dose-related action of IGF-I on basal prostanoid production from perifused human term placenta. It is filed as cell-based. How it is done: The dose-related effect of IGF-I on placental prostanoids was studied with the perifusion system previously described herein. Normal term deliveries were perifused with a defined Medium 199 containing no phenol red nor exogenous hormonal factors other than 100μU/ml of insulin, estradiol (200 ng/ml), progesterone (4000 ng/ml) and dexamethasone (10^−8). These doses were chosen to emulate the normal term placental environment. Replicate chambers for the control (n=4) and treatment (n=3) explants for each placenta were made. Following a five-hour perifusion at 6 ml/hr with basal media, IGF-I (5, 10, 20, 40 or 80 ng/ml) was added to the triplicate chambers and sample collection continued every 30 minutes for another five hours. The average hormonal response for the replicate chambers of the control and the IGF-I treated explants was calculated and then the mean (±SEM) response for the different placentas with and without treatment was computed and the results compared. […] TxB2 was inhibited at even 10 ng/ml of IGF-I.

[6] abbreviates: seven hours of perifusion, dexamethasone 10^−8 M, GnRH 10^−7 M, compared to control.

Ends that are not written are not given here.

In the case of `C[C@@H]1C[C@H]2[C@@H]3CCC4=CC(=O)C=C[C@]4(C)[C@@]3(F)[C@@H](O)C[C@]2(C)[C@@]1(O)C(=O)CO` [dexamethasone], in the assay on human term placenta [1] (dexamethasone 10^−8 M, seventh hour of incubation), the “release as percent of control” value is on record as 68 % of its control release. For the same molecule, in the assay with human term placenta [1] (seven hours of perifusion, dexamethasone 10^−8 M, GnRH 10^−7 M), the “cumulative release of TxB2” value is on record as 62%±6%. Further, in the assay with human term placenta [1] (setting [6]), the “cumulative release of 6-keto-PGF1α” value is 73%±7%, the “cumulative release of PGE” value is 66%±4% and the “cumulative release of PGF” value is recorded as 71%±4%.

Consider `COc1ccc2c(c1)c(CC(=O)O)c(C)n2C(=O)c1ccc(Cl)cc1` [indomethacin], for which the “molar concentration necessary to produce pharmacological affects” value in assay [2] was “at least 10^−3 molar (M)”. The PGFM release in the assay with human term placenta [3] (after seven hours of perifusion) was 51.8 % of the release from the control. For the same molecule, the “PGFM release, effect” value in the assay with human term placenta [3] (after three hours of exposure) was “not inhibited”. Moreover, in the assay with human term placenta [3] (continued perifusion), the 6-keto-PGF1α release is 26.3 % of the control, the PGE release is 24.0 % of the control, the PGF release is on record as 9.6 % of the control and the TxB2 release was 30.5 % of the control. Besides, in the assay on human term placenta [3] (three hours post-exposure), the 6-keto-PGF1α release is on record as 41.3 % of control, the PGE release is recorded as 33.5 % of control, the PGF release is on record as 22.1 % of control and the TxB2 release was 42.3 % of control.

For the molecule “GnRH: gonadotropin-releasing hormone (QHWSYGLRPG; ends and bridges not checked; UniProt P01148 24-33, looked up)”, in the assay on human term placenta [1] (GnRH 10^−7 M, within the first hour, continued throughout perifusion), the “effect on TxB2 release” value is on record as “inhibition”.

For Insulin like growth factor-I [IGF-I], in the assay on human term placenta [4] (IGF-I 10^−8 M), the “cumulative release of the other hormones studied (PGE, PGFM, 6-keto-PGF1α, hCG) vs control” value is listed as “no significant change”; the “effect on PGE release” value was “not affected”; the “effect on release of hCG compared to controls” value was “did not affect”; the hCG release is 55 % of the fifth-hour release. Besides, in the assay with human term placenta [4] (IGF-I 10^−8 M treated tissues), the PGE release was 228 % of the fifth-hour release. For the same molecule, in the assay on human term placenta [4] (IGF-I 10^−8 M, P<0.01), the “cumulative release of TxB2 vs control” value is “significant reduction”. Moreover, the “cumulative release of PGF vs control” value in the assay on human term placenta [4] (IGF-I 10^−8 M, P<0.05) is recorded as “significant reduction”. The TxB2 release in the assay with human term placenta [4] (IGF-I 10^−8 M, by the fifth hour of treatment) is reported as 85 % of the control's release. The molecule also had a PGF release in the assay on human term placenta [4] (IGF-I 10^−8 M, by the fifth hour of treatment, normalized to fifth-hour release) of 116%. Besides, the 6-keto-PGF1α release in the assay on human term placenta [4] (IGF-I 10^−8 M, during the five hours) is 146 % of the fifth-hour release. Besides, the “effect on PGFM release” value in the assay with human term placenta [4] (IGF-I 10^−8 M, five hours of perifusion) was “unchanged”. Also, the “time to significant inhibition of TxB2 release” value with human term placenta [4] (IGF-I 10^−8 M, following treatment) was at most 150 min. For the same molecule, the “effect on release of 6-keto-PGF1α” value with human term placenta [4] (IGF-I 10^−8 M, more than five hours) was “not significantly altered”. Also, the “effect on release of PGF” value in the assay on human term placenta [4] (IGF-I 10^−8 M, significant from the third hour) is “significantly (P<0.01) inhibited”. Moreover, the “effect on TxB2” value in the assay on human term placenta [5] (IGF-I 10 ng/ml) is on record as “inhibited”. The “effect on PGF production” value with human term placenta [5] (IGF-I 5-80 ng/ml) was “greatly reduced”. The “greatest inhibition of TxB2 production” value with human term placenta [5] (IGF-I 10^−8 M) was 70 % of the basal release. In the assay with human term placenta [5] (IGF-I at each dose (5, 10, 20, 40 or 80 ng/ml)), the “effect on TxB2 production” value is reported as “statistically significant inhibition”. Further, the “effect on PGE” value in the assay on human term placenta [5] (high dose of IGF-I) is “small reduction”. In addition, the “molar concentration producing a selective pharmacological affect on human placental tissue” value in the assay with human term placenta [5] (on the order of) is listed as ~10^−9 molar.

(Values after patent US6461613B2, “Methods and compositions for the selective regulation of chorionic prostanoids” (priority 1993, dated 2002).)
